Experimental data from patent US20230136075A1, “TREATMENT FOR SEPSIS-INDUCED ORGAN DYSFUNCTION” (The Florey Institute of Neuroscience and Mental Health, priority 2020, published 2023).

Test system: ovine sepsis induced by intravenous infusion of live E. coli
Text: Using this model, the inventors have investigated the effect of mega dose intravenous vitamin C therapy on various parameters indicative of the progression of sepsis in sheep (Merino ewes, 35-45 kg; 1.5-2.0 years old). Sheep were divided into two groups, a vitamin C (sodium ascorbate) therapy group and a vehicle group as a control. Experimental protocols were approved by the Animal Ethics Committee of the Florey Institute of Neuroscience and Mental Health under guidelines of the National Health and Medical Research Council of Australia.
Preparatory surgical procedures were carried out as described in Lankadeva et al. (2018b). Briefly, two preparatory surgical procedures were performed under general anaesthesia. First, a carotid artery was exteriorised into a skin fold to form a carotid arterial loop to facilitate cannulation for measurement of arterial pressure and heart rate, and for blood sampling. During the same surgical procedure, a flow probe was placed around the pulmonary artery to measure cardiac output. Animals were allowed 3-4 weeks of recovery. Second, a flow probe was implanted around a renal artery to measure renal blood flow, a renal vein was cannulated for blood sampling and fibre optic probes were inserted into the renal cortex, renal medulla (within kidneys) and parietal cortex (brain) to measure tissue perfusion, oxygen tension and temperature.
During the second surgical procedure cannulae were implanted in the carotid artery for arterial pressure measurement and blood sampling and the jugular vein for infusion of fluids, vasopressors, Escherichia coli, sodium ascorbate and blood sampling, and a Foley catheter was inserted into the bladder to collect urine and monitor hourly urine output.
Following three days of recovery from the second surgical procedure, the experimental protocol (see FIG. 1) was initiated in conscious sheep, to avoid the confounding effects of general anaesthesia. Animals daily food and water intake and urine output was measured on a 24-hour basis during the course of the 5-day protocol.
First, a 24-hour baseline period was commenced, which included measurement of systemic haemodynamics, renal and brain perfusion and oxygenation, arterial, central venous and renal venous blood gases and lactate, and urine output. Arterial blood and urine samples were collected at set times during the experimental period.
After establishment of the 24-hour baseline period, gram-negative sepsis was induced by intravenous infusion of live E. coli (isolated from a patient with sepsis at Austin Health) as described in Lankadeva et al. (2018b), administered as a loading (bolus) infusion of 2.8×10^9 colony-forming units (CFU) over 30-minutes followed by a continuous infusion of 1.26×10^9 CFU/h for 30.5 hours. No prophylactic antibiotics, sedative or analgesic agents were administered during this protocol. The description in the following paragraphs is with reference to the protocol as shown schematically in FIG. 1.
At 23 hours of sepsis, when sheep had fulfilled the clinical criteria for sepsis (i.e. established hypotension, tachycardia, fever, lung injury, tachypnoea, hyperlactatemia and stage 1-2 acute kidney injury) animals were resuscitated with 30 mL/kg balanced crystalloid sodium lactate (Hartmann's solution infused at approximately 2500 ml/hr) for 30 mins, from 23-23.5 hours of sepsis.
A blocked randomization design was used to allocate sheep to treatment with sodium ascorbate or vehicle.

[1] = NaHCO3 infusion, two septic sheep
[2] = during the infusion of NaHCO3, two septic sheep

O=C([O-])O.[Na+] [NaHCO3, sodium bicarbonate]
MAP [1]: decreased
RBF [1]: not reduced
arterial PO2 [1]: no improvement
blood pH [1]: large increase
blood potassium [1]: hypokalemia
blood sodium [1]: hypernatremia
creatinine clearance [1]: no reduction in plasma creatinine or increase in creatinine clearance was observed
heart rate [1]: not reduced
norepinephrine dose required [1]: increasing doses of norepinephrine were required
plasma creatinine [1]: no reduction
renal medullary PO2 [1]: no improvement
renal medullary perfusion [1]: no improvement
urine flow [1]: urine flow increased
body temperature [2]: large increases
shivering [2]: intermittent shivering
reproduction of the effects of sodium ascorbate (hypertonic NaHCO3, equal sodium load, 8.4 g/kg over 30 minutes then 8.4 g/kg/hr for 6.5 hours, two septic sheep, data not shown): did not reproduce the effects of sodium ascorbate
